# ChEMBL document CHEMBL3045689, “Synthesis of novel 2-(3-aryl-sydnon-4-ylidene)-5-substituted-[1,3,4]-thiadiazolylamines and [1,3,4]-thiadiazol-2-yl-3-oxo-[1,2,4]-triazoles as antimicrobial agents” (2012)
# Experiments:
# Type in all cases: functional
# Bacillus cereus = test: Antibacterial activity against Bacillus cereus after 18 to 24 hr by microbroth dilution method
# Escherichia coli = test: Antibacterial activity against Escherichia coli after 18 to 24 hr by microbroth dilution method
# Aspergillus niger = test: Antifungal activity against Aspergillus niger after 18 to 24 hr by microbroth dilution method
# Candida albicans = test: Antifungal activity against Candida albicans after 18 to 24 hr by microbroth dilution method
Structure (SMILES),MIC (Bacillus cereus) [µg/mL],MIC (Escherichia coli) [µg/mL],MIC (Aspergillus niger) [µg/mL],MIC (Candida albicans) [µg/mL]
O=C(N[C@H](CO)[C@H](O)c1ccc([N+](=O)[O-])cc1)C(Cl)Cl [CHLORAMPHENICOL],12.5,1.95,,
Cc1nn(-c2ccccc2)c(=O)n1-c1nnc(-c2ccccc2)s1,125,31.2,62.5,31.2
COc1ccc(-[n+]2noc([O-])c2/C=N/c2nnc(-c3ccccc3)s2)cc1,62.5,62.5,62.5,62.5
[O-]c1on[n+](-c2ccc(Cl)cc2)c1/C=N/c1nnc(-c2ccccc2)s1,62.5,31.2,31.2,7.8
COc1ccc(-[n+]2noc([O-])c2/C=N/c2nnc(C)s2)cc1,125,15.6,125,7.8
[O-]c1on[n+](-c2ccccc2)c1/C=N/c1nnc(-c2ccccc2)s1,125,31.2,125,31.2
CC(=O)N1CCN(c2ccc(OCC3COC(Cn4ccnc4)(c4ccc(Cl)cc4Cl)O3)cc2)CC1 (stereo not drawn) [KETOCONAZOLE],,,0.97,0.97
Cc1ccc(-[n+]2noc([O-])c2/C=N/c2nnc(-c3ccccc3)s2)cc1,125,62.5,125,3.9
Cc1ccc(-[n+]2noc([O-])c2/C=N/c2nnc(C)s2)cc1,125,62.5,125,31.2
Cc1nnc(/N=C/c2c([O-])on[n+]2-c2ccc(Cl)cc2)s1,62.5,62.5,125,7.8
Cc1nnc(-n2c(C)nn(-c3ccccc3)c2=O)s1,125,62.5,62.5,31.2
Cc1nnc(-n2c(C)nn(-c3ccc(Cl)cc3)c2=O)s1,15.6,15.6,7.8,7.8
Cc1ccc(-n2nc(C)n(-c3nnc(C)s3)c2=O)cc1,62.5,62.5,62.5,62.5
COc1ccc(-n2nc(C)n(-c3nnc(C)s3)c2=O)cc1,31.5,15.6,7.8,31.2
Cc1ccc(-n2nc(C)n(-c3nnc(-c4ccccc4)s3)c2=O)cc1,62.5,15.6,62.5,125
COc1ccc(-n2nc(C)n(-c3nnc(-c4ccccc4)s3)c2=O)cc1,125,15.6,62.5,31.2
Cc1nnc(/N=C/c2c([O-])on[n+]2-c2ccccc2)s1,250,62.5,125,31.2
Cc1nn(-c2ccc(Cl)cc2)c(=O)n1-c1nnc(-c2ccccc2)s1,15.6,31.2,15.6,7.8
